The assay addresses T1, GLP-1R (Homo sapiens, UniProt P43220).
T1 construct: expressed in transfected cells
In words: GLP-1R agonistic effect in GLP1R-cAmp-Luc cells (luciferase reporter; titled 'Enzymatic assay'). Particulars: for EC50: 4 hours incubation, firefly luciferin signal; for EC50 of Positive reference / EC50 of Compound of the Present Application: Positive reference is PF-06882961. The class given is cell-based. The method, then:
The GLP-1R agonistic effects of the test compounds were determined using GLP1R-cAmp-Luc cells. 1) The test compound was dissolved in DMSO and mixed well until the test compound was completely dissolved. The test compounds were dissolved in DMSO to prepare 10 mM stock solutions. All compounds were diluted with DMEM medium (high sugar, Puromycin^+, Hygromycin B^+) to an initial concentration of 1250 nM, and then subjected to 5-fold serial dilution to a total of 7 concentration gradients. The GLP1R-cAmp-Luc cells were seeded in white-wall 96-well cell culture plates at a density of 1×10^5/mL, with 90 µL cell suspension per well; the test compound at each of the 7 concentration gradients was added at 10 µL per well, with the actual initial working concentration of 125 nM; and the cells were placed in a 37 °C, 5% CO2 cell incubator for 4 hours; 2) 100 µL of luciferin potassium salt solution diluted to 300 µg/mL in PBS was added to each well at a working concentration of 150 µg/mL and incubated at room temperature for 30 minutes; 3) fluorescence signals of firefly luciferin were measured with a multifunctional microplate reader (PerkinElmer, Nivo); and the fluorescence values were processed using GraphPad Prism software to calculate EC50 values.
(A reporter such as luciferase makes a cellular process visible.)

Some results are limits rather than exact numbers.

T1 sequence (P43220 24-463, species assumed): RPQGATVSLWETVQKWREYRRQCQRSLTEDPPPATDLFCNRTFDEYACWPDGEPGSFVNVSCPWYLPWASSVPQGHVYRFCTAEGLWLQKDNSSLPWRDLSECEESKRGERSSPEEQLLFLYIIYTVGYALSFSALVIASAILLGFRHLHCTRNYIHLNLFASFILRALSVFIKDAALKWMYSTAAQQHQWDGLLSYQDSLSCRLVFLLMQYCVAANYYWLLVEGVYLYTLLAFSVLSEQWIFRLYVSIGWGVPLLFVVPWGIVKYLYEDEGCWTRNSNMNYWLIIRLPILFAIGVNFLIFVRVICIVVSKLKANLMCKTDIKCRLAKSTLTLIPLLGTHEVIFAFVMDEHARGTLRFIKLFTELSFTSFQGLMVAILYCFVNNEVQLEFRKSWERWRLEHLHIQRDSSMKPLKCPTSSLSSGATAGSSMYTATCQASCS

What is called EC50 is the concentration giving half of the maximal effect. Read a low EC50 as an effect from little substance. Regarding `N#Cc1ccc(COc2cccc(-c3ccc(Cc4nc5ccc(C(=O)O)cc5n4C[C@@H]4CCO4)c4c3OCO4)n2)c(F)c1` [Compound 1, (S)-2-((7-(6-((4-cyano-2-fluorobenzyl)oxy)pyridin-2-yl)benzo[d][1,3]dioxolan-4-yl)methyl)-1-(oxetan-2-ylmethyl)-1H-benzo[d]imidazole-6-carboxylic acid], the EC50 was in the range of 5 to 10 nM.
The molecule `N#Cc1ccc(COc2cccc(-c3ccc(Cc4nc5ccc(C(=O)O)cc5n4C[C@@H]4CCO4)c4c3OCC4)n2)c(F)c1` [Compound 2, (S)-2-((7-(6-((4-cyano-2-fluorobenzyl)oxy)pyridin-2-yl)-2,3-dihydrobenzofuran-4-yl)methyl)-1-(oxetan-2-ylmethyl)-1H-benzo[d]imidazole-6-carboxylic acid] had an EC50 of 1 to 5 nM.
The same measure, in the same setting: for `CC(c1ccc(-c2cccc(OCc3ccc(C#N)cc3F)n2)c2c1CCO2)c1nc2ccc(C(=O)O)cc2n1C[C@@H]1CCO1` (stereo partly drawn) [Compound 6, 2-(1-(7-(6-((4-cyano-2-fluorobenzyl)oxy)pyridin-2-yl)-2,3-dihydrobenzofuran-4-yl)ethyl)-1-(((S)-oxetan-2-yl)methyl)-1H-benzo[d]imidazole-6-carboxylic acid] the value was 5 to 10 nM.
Turning to `N#Cc1ccc(COc2cccc(-c3cc(Cl)c(Cc4nc5ccc(C(=O)O)cc5n4C[C@@H]4CCO4)c4c3OCC4)n2)c(F)c1` [Compound 7, (S)-2-((5-chloro-7-(6-((4-cyano-2-fluorobenzyl)oxy)pyridin-2-yl)-2,3-dihydrobenzofuran-4-yl)methyl)-1-(oxetan-2-ylmethyl)-1H-benzo[d]imidazole-6-carboxylic acid], the EC50 was ≤ 1 nM and the “EC50 of Positive reference / EC50 of Compound of the Present Application” value is reported as “Ratio ≥10”.
Consider `O=C(O)c1ccc2nc(Cc3ccc(-c4cccc(OCc5ccc(Cl)cc5F)n4)c4[nH]ccc34)n(C[C@@H]3CCO3)c2c1` [Compound 9, (S)-2-((7-(6-((4-chloro-2-fluorobenzyl)oxy)pyridin-2-yl)-1H-indol-4-yl)methyl)-1-(oxetan-2-ylmethyl)-1H-benzo[d]imidazole-6-carboxylic acid], for which the EC50 lay within 1 to 5 nM.
For the molecule `O=C(O)c1ccc2nc(Cc3c(F)cc(-c4cccc(OCc5ccc(Cl)cc5F)n4)c4c3CCO4)n(C[C@@H]3CCO3)c2c1` [Compound 12, (S)-2-((7-(6-((4-chloro-2-fluorobenzyl)oxy)pyridin-2-yl)-5-fluoro-2,3-dihydrobenzofuran-4-yl)methyl)-1-(oxetan-2-ylmethyl)-1H-benzo[d]imidazole-6-carboxylic acid], the EC50 is ≤ 1 nM and the “EC50 of Positive reference / EC50 of Compound of the Present Application” value is recorded as “Ratio ≥10”.
The matching figures for `N#Cc1ccc(COc2cccc(-c3cc(F)c(Cc4nc5c(F)cc(C(=O)O)cc5n4C[C@@H]4CCO4)c4c3OCC4)n2)c(F)c1` [Compound 13, (S)-2-((7-(6-((4-cyano-2-fluorobenzyl)oxy)pyridin-2-yl)-5-fluoro-2,3-dihydrobenzofuran-4-yl)methyl)-4-fluoro-1-(oxetan-2-ylmethyl)-1H-benzo[d]imidazole-6-carboxylic acid]: ≤ 1 nM and “Ratio ≥10”.
`N#CCC1(Cn2c(Cc3c(Cl)cc(-c4cccc(OCc5ccc(C#N)cc5F)n4)c4c3CCO4)nc3ccc(C(=O)O)cc32)CC1` [Compound 18, 2-((5-chloro-7-(6-((4-cyano-2-fluorobenzyl)oxy)pyridin-2-yl)-2,3-dihydrobenzofuran-4-yl)methyl)-1-((1-(cyanomethyl)cyclopropyl)methyl)-1H-benzo[d]imidazole-6-carboxylic acid] registered an EC50 of 1 to 5 nM.
As to `N#CCC1(Cn2c(Cc3c(Cl)cc(-c4cccc(OCc5ccc(C#N)cc5F)n4)c4c3CCO4)nc3ccc(C(=O)O)nc32)CC1` [Compound 19, 2-((5-chloro-7-(6-((4-cyano-2-fluorobenzyl)oxy)pyridin-2-yl)-2,3-dihydrobenzofuran-4-yl)methyl)-3-((1-(cyanomethyl)cyclopropyl)methyl)-3H-imidazo[4,5-b]pyridine-5-carboxylic acid], the EC50 is 1 to 5 nM.
On the same count and under the same terms, the figure for `O=C(O)c1ccc2nc(Cc3ccc(-c4cccc(OCc5ccc(Cl)cc5F)n4)c4c3CCC4=O)n(C[C@@H]3CCO3)c2c1` [Compound 20, (S)-2-((7-(6-((4-chloro-2-fluorobenzyl)oxy)pyridin-2-yl)-1-oxo-2,3-dihydro-1H-inden-4-yl)methyl)-1-(oxetan-2-ylmethyl)-1H-benzo[d]imidazole-6-carboxylic acid] is 1 to 5 nM.
On to `COc1cc(C(F)(F)F)ccc1COc1cccc(-c2ccc(Cc3nc4c(OC)cc(C(=O)O)cc4n3C[C@@H]3CCO3)c3c2OCCO3)n1` [Compound 62, (S)-4-methoxy-2-((8-(6-((2-methoxy-4-(trifluoromethyl)benzyl)oxy)pyridin-2-yl)-2,3-dihydrobenzo[b][1,4]dioxan-5-yl)methyl)-1-(oxetan-2-ylmethyl)-1H-benzo[d]imidazole-6-carboxylic acid], for which the EC50 lay within 1 to 5 nM.
Consider `COc1cc(C(F)(F)F)ccc1COc1cccc(-c2cc(F)c(Cc3nc4c(OCC(F)F)cc(C(=O)O)cc4n3CC3(CF)CC3)c3c2OCC3)n1` [Compound 79], for which the EC50 was ≤ 1 nM.
`COc1cc(C(F)(F)F)ccc1COc1cccc(-c2cc(F)c(Cc3nc4c(OC)cc(C(=O)O)cc4n3C[C@@H]3CCO3)c3c2OCC3)n1` [Compound 80, (S)-2-((5-fluoro-7-(6-((2-methoxy-4-(trifluoromethyl)benzyl)oxy)pyridin-2-yl)-2,3-dihydrobenzofuran-4-yl)methyl)-4-methoxy-1-(oxetan-2-ylmethyl)-1H-benzo[d]imidazole-6-carboxylic acid]: the EC50 is ≤ 1 nM and the “EC50 of Positive reference / EC50 of Compound of the Present Application” value was “Ratio ≥10”.
Consider `COc1cc(C(=O)O)cc2c1nc(Cc1c(F)cc(-c3cccc(OCc4ccc(Cl)cc4F)n3)c3c1CCO3)n2C[C@@H]1CCO1` [Compound 81, (S)-2-((7-(6-((4-chloro-2-fluorobenzyl)oxy)pyridin-2-yl)-5-fluoro-2,3-dihydrobenzofuran-4-yl)methyl)-4-methoxy-1-(oxetan-2-ylmethyl)-1H-benzo[d]imidazole-6-carboxylic acid], for which the EC50 was ≤ 1 nM and the “EC50 of Positive reference / EC50 of Compound of the Present Application” value is “Ratio ≥10”.
Take `COc1cc(C(=O)O)cc2c1nc(Cc1c(F)cc(-c3cccc(OCc4ccc(Cl)cc4OC(F)F)n3)c3c1CCO3)n2C[C@@H]1CCO1` [Compound 84, (S)-2-((7-(6-((4-chloro-2-(difluoromethoxy)benzyl)oxy)pyridin-2-yl)-5-fluoro-2,3-dihydrobenzofuran-4-yl)methyl)-4-methoxy-1-(oxetan-2-ylmethyl)-1H-benzo[d]imidazole-6-carboxylic acid]: the EC50 is ≤ 1 nM and the “EC50 of Positive reference / EC50 of Compound of the Present Application” value is listed as “Ratio ≥10”.
In the case of `O=C(O)c1cc(OCC(F)F)c2nc(Cc3c(F)cc(-c4cccc(OCc5ccc(Cl)cc5OC(F)F)n4)c4c3OCO4)n(CC3(CF)CC3)c2c1` [Compound 86, 2-((7-(6-((4-Chloro-2-(difluoromethoxy)benzyl)oxy)pyridin-2-yl)-5-fluoro-benzo[d][1,3]dioxolan-4-yl)methyl)-4-(2,2-difluoroethoxy)-1-((1-(fluoromethyl)cyclopropyl)methyl)-1H-benzo[d]imidazole-6-carboxylic acid], the EC50 was in the range of 1 to 5 nM.
Turning to `O=C(O)c1ccc2nc(Cc3c(F)cc(-c4cccc(OCc5ccc(Cl)cc5OC(F)F)n4)c4c3CCO4)n(C[C@@H]3CCO3)c2c1` [Compound 95, (S)-2-((7-(6-((4-chloro-2-(difluoromethoxy)benzyl)oxy)pyridin-2-yl)-5-fluoro-2,3-dihydrobenzofuran-4-yl)methyl)-1-(oxetan-2-ylmethyl)-1H-benzimidazole-6-carboxylic acid], the 50% effective concentration (EC50) is ≤ 1 nM.
Regarding `COc1cc(C(=O)O)cc2c1nc(Cc1c(F)cc(-c3cccc(OCc4ccc(C#N)cc4F)n3)c3c1CCO3)n2C[C@@H]1CCO1` [Compound 100, (S)-2-((7-(6-((4-cyano-2-fluorobenzyl)oxy)pyridin-2-yl)-5-fluoro-2,3-dihydrobenzofuran-4-yl)methyl)-4-methoxy-1-(oxetan-2-ylmethyl)-1H-benzo[d]imidazole-6-carboxylic acid], the EC50 was ≤ 1 nM and the “EC50 of Positive reference / EC50 of Compound of the Present Application” value is “Ratio ≥10”.
The matching figures for `COc1cc(C(=O)O)cc2c1nc(Cc1c(F)cc(-c3ccnc(OCc4ccc(Cl)cc4F)n3)c3c1CCO3)n2C[C@@H]1CCO1` [Compound 106, (S)-2-((7-(2-((4-chloro-2-fluorobenzyl)oxy)pyrimidin-4-yl)-5-fluoro-2,3-dihydrobenzofuran-4-yl)methyl)-4-methoxy-1-(oxetan-2-ylmethyl)-1H-benzo[d]imidazole-6-carboxylic acid]: ≤ 1 nM and “Ratio ≥10”.
In the case of `COc1cc(C(=O)O)cc2c1nc(Cc1c(F)cc(-c3cccc(OCc4ccc(Cl)cc4F)c3)c3c1CCO3)n2C[C@@H]1CCO1` [Compound 107, (S)-2-((7-(3-((4-chloro-2-fluorobenzyl)oxy)phenyl)-5-fluoro-2,3-dihydrobenzofuran-4-yl)methyl)-4-methoxy-1-(oxetan-2-ylmethyl)-1H-benzo[d]imidazole-6-carboxylic acid], the EC50 lay within 1 to 5 nM.

These data come from EP4748839A1 (CSPC Zhongqi Pharmaceutical Technology (Shijiazhuang) Co., …, priority 2023, dated 2025).
